# Patent US20210113696A1, “IONIC LIQUID COMPOSITIONS FOR TREATMENT OF ROSACEA” (CAGE BIO INC., priority 2018, published 2021)
# What was measured:
# [1] = Visual observation of appearance (solubility, miscibility) in solvents, solvent blends and gel bases; assay type: physicochemical
# Description: Conductivity in mixtures of a solvent in combination with choline and geranic acid were done separately.
# (§1) Propylene glycol: Samples were made by first starting with 5 grams of each raw material; geranic acid first then repeated with choline (bicarbonate). In summary 1-3 grams of propylene glycol was added to the raw material being tested and mixed. A visual observation was made along with a conductivity measurement.
# as §1, with “Ethanol:” for “Propylene glycol:”
# as §1, with “Diisopropyl adipate:” for “Propylene glycol:”, “summary,” for “summary”
# (§2) The solvents investigated included: water, propylene glycol, glycerin, PEG400, ethanol, diisopropyl adipate, mineral oil, propylene glycol/ethanol/water, and glycerin/PEGG400/water. […] Observations were taken at each concentration. Conductivity measurements were taken at each titrated point for information only at this stage. Scales on subsequent graphs are appropriate for each solvent's values.
# No conductivity measurements were taken.
# (§3) A visual observation was made along with a conductivity measurement. The process was continued until ˜25 grams of product was reached. The resulting product was stored for later evaluation.
# as §3, §3, §3, §3, §3
# 1-3 grams of water was added and mixed. A visual observation was made along with a conductivity measurement. The process was continued until ˜16 grams of product was reached. The resulting product was stored for later evaluation.
# 1-3 grams of water was added and mixed. A visual observation was made along with a conductivity measurement. The process was continued until ˜20 grams of product was reached. The resulting product was stored for later evaluation. […]
# A similar experiment with the propylene glycol formulation was performed. The results are shown in Table 23, Table 24, and FIG. 28.
# (§4) The conductivity is shown in FIG. 32 and the appearance is described in Table 28.
# [2] = Conductivity measurement in solvents, solvent blends and gel bases; assay type: physicochemical
# Description: Conductivity in mixtures of a solvent in combination with choline and geranic acid were done separately. […]
# as §1, with “Ethanol:” for “Propylene glycol:”, “measurement. […]” for “measurement.”
# as §2, §3, §3, §3, §3, §3
# A visual observation was made along with a conductivity measurement. The process was continued until ˜25 grams of product was reached. The resulting product was stored for later evaluation. […]
# as §4
# [3] = 19% geranic acid, 81% ethanol 200 proof
# [4] = 20% geranic acid, 80% ethanol 200 proof
# [5] = 22% geranic acid, 78% ethanol 200 proof
# [6] = 24% geranic acid, 76% ethanol 200 proof
# [7] = 26% geranic acid, 74% ethanol 200 proof
# [8] = 29% geranic acid, 71% ethanol 200 proof
# [9] = 33% geranic acid, 67% ethanol 200 proof
# [10] = 36% geranic acid, 64% propylene glycol
# [11] = 38% geranic acid, 62% ethanol 200 proof
# [12] = 45% geranic acid, 55% ethanol 200 proof
# [13] = 56% geranic acid, 44% ethanol 200 proof
# [14] = 56% geranic acid, 44% propylene glycol
# [15] = 71% geranic acid, 29% ethanol 200 proof
# [16] = 71% geranic acid, 29% propylene glycol
# [17] = 71.43% geranic acid, 28.57% diisopropyl adipate
# [18] = 83% geranic acid, 17% ethanol 200 proof
# [19] = 83% geranic acid, 17% propylene glycol
# [20] = 83.33% geranic acid, 16.67% diisopropyl adipate
# [21] = 100.00% geranic acid, 0.00% diisopropyl adipate
# [22] = 100% geranic acid, 0% ethanol 200 proof
# [23] = 100% geranic acid, 0% propylene glycol
structure (smiles),measurement,setting,value
"C[N+](C)(C)CCO [Choline Bicarbonate, choline bicarbonate]",miscibility with diisopropyl adipate,[1],not miscible
"CC(C)=CCC/C(C)=C/C(=O)O [Geranic Acid, 3,7-dimethyl-2,6-octadienoic acid]",Conductivity,[2]; [3],0.00064 mS/cm
same,Conductivity,[2]; [4],0.00064 mS/cm
same,Conductivity,[2]; [5],0.00066 mS/cm
same,Conductivity,[2]; [6],0.00068 mS/cm
same,Conductivity,[2]; [7],0.00072 mS/cm
same,Conductivity,[2]; [8],0.00074 mS/cm
same,Conductivity,[2]; [9],0.00083 mS/cm
same,Conductivity,[2]; [10],0.00009 mS/cm
same,Conductivity,[2]; [11],0.00061 mS/cm
same,Conductivity,[2]; [12],0.00048 mS/cm
same,Conductivity,[2]; [13],0.00022 mS/cm
same,Conductivity,[2]; [14],0.00008 mS/cm
same,Conductivity,[2]; [15],0.00003 mS/cm
same,Conductivity,[2]; [16],0.00008 mS/cm
same,Conductivity,[2]; [17],0 mS/cm
same,Conductivity,[2]; [18],0.00001 mS/cm
same,Conductivity,[2]; [19],0.00000 mS/cm
same,Conductivity,[2]; [20],0 mS/cm
same,Conductivity,[2]; [21],0 mS/cm
same,Conductivity,[2]; [22],0.00000 mS/cm
same,Conductivity,[2]; [23],0.00000 mS/cm
same,contribution to the overall conductivity,[2]; mixtures with solvent,effectively zero
same,Appearance,[1]; [3],Clear solution
same,Appearance,[1]; [4],Clear solution
same,Appearance,[1]; [5],Clear solution
same,Appearance,[1]; [6],Clear solution
same,Appearance,[1]; [7],Clear solution
same,Appearance,[1]; [8],Clear solution
same,Appearance,[1]; [9],Clear solution
same,Appearance,[1]; [10],Clear solution
same,Appearance,[1]; [11],Clear solution
same,Appearance,[1]; [12],Clear solution
same,Appearance,[1]; [13],Clear solution
same,Appearance,[1]; [14],Clear solution
same,Appearance,[1]; [15],Clear solution
same,Appearance,[1]; [16],Clear solution
same,Appearance,[1]; [17],Clear solution
same,Appearance,[1]; [18],Clear solution
same,Appearance,[1]; [19],Clear solution
same,Appearance,[1]; [20],Clear solution
same,Appearance,[1]; [21],Clear solution
same,Appearance,[1]; [22],Clear solution
same,Appearance,[1]; [23],Clear solution
